Assays:
Type in all cases: biochemical
[1] = molecular target: T1, FlgE (flagellar hook protein) (Treponema denticola, UniProt Q9RQB6); experiment: ELISA of Lal crosslinking between purified FlgE subunits
T1 sequence (Q9RQB6 11-454): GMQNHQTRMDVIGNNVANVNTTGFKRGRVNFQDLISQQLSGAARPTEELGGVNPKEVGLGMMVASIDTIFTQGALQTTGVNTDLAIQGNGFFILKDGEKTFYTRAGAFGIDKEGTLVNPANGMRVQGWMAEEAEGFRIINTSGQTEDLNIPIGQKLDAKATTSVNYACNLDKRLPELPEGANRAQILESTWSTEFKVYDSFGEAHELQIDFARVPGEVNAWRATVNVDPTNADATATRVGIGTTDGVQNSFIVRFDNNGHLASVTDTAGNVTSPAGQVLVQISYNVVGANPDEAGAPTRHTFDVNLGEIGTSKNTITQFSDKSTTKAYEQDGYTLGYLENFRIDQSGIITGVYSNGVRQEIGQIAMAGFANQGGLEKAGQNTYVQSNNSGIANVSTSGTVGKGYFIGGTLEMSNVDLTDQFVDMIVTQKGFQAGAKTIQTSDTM

[2] = molecular target: T1, FlgE (flagellar hook protein); experiment: ELISA of Lal crosslinking between purified FlgE subunits, dose-response
[3] = molecular target: T1, FlgE (flagellar hook protein); experiment: as above; remark: listed apart in the source

Work on C=CCc1ccc(O)c(-c2ccc(O)c(CC=C)c2)c1 [honokiol] yielded an IC50 [1] of 118 µM.
In the case of COc1cc(C(=O)NS(=O)(=O)c2ccccc2C)ccc1Cc1cn(C)c2ccc(NC(=O)OC3CCCC3)cc12 [zafirlukast], the IC50 [2] is reported as 92 µM.
Oc1c(Cl)cc(Cl)c(Cl)c1Cc1c(O)c(Cl)cc(Cl)c1Cl [hexachlorophene] was tested, and the IC50 [3] was 47.7 µM.
